This is an account of results in patent US10975056B2 (GlaxoSmithKline Intellectual Property Development Limited, priority 2016, dated 2021).

Each structure is given as a SMILES string. Several values for one entry are separate records, joined by “and”; a condition that tells them apart may be missing. Equal entries are not always repeated. Structures can show the parent of a compound that is named as a salt. Where two headings read alike, the source gives them in different places.

Assay [1] concerns erythroid progenitor cells (EPCs). The assay is described as follows: Fetal hemoglobin (HbF) ELISA in day 7 erythroid progenitor cells.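 Note: for fetal hemoglobin induction normalized to vehicle-treated cells.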 The format is cell-based, human. The note with it: Homo sapiens, Erythroid progenitor cell, HbF ELISA, day 7 EPCs, 5 days; read-out: EPC ELISA (pEC50 category) (converted). In a few lines:
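HbF induction was read by anti-HbF sandwich ELISA (HRP/TMB, OD450) on lysates and normalized to vehicle-treated cells. Cells were day 7 erythroid progenitors derived from human bone marrow CD34+ cells, seeded at 1,000/well with 3 U/mL rhEPO. Compound was given for 5 days at 37 °C at final concentrations […].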
Background: An ELISA detects its analyte on a solid surface through an enzyme-linked reagent.

For assay [2], the target named is DNMT1 (Homo sapiens, UniProt P26358). The assay is described as follows: DNMT1 biochemical activity, breaklight assay and/or SPA assay.
Chain of DNMT1 (P26358 whole entry, looked up): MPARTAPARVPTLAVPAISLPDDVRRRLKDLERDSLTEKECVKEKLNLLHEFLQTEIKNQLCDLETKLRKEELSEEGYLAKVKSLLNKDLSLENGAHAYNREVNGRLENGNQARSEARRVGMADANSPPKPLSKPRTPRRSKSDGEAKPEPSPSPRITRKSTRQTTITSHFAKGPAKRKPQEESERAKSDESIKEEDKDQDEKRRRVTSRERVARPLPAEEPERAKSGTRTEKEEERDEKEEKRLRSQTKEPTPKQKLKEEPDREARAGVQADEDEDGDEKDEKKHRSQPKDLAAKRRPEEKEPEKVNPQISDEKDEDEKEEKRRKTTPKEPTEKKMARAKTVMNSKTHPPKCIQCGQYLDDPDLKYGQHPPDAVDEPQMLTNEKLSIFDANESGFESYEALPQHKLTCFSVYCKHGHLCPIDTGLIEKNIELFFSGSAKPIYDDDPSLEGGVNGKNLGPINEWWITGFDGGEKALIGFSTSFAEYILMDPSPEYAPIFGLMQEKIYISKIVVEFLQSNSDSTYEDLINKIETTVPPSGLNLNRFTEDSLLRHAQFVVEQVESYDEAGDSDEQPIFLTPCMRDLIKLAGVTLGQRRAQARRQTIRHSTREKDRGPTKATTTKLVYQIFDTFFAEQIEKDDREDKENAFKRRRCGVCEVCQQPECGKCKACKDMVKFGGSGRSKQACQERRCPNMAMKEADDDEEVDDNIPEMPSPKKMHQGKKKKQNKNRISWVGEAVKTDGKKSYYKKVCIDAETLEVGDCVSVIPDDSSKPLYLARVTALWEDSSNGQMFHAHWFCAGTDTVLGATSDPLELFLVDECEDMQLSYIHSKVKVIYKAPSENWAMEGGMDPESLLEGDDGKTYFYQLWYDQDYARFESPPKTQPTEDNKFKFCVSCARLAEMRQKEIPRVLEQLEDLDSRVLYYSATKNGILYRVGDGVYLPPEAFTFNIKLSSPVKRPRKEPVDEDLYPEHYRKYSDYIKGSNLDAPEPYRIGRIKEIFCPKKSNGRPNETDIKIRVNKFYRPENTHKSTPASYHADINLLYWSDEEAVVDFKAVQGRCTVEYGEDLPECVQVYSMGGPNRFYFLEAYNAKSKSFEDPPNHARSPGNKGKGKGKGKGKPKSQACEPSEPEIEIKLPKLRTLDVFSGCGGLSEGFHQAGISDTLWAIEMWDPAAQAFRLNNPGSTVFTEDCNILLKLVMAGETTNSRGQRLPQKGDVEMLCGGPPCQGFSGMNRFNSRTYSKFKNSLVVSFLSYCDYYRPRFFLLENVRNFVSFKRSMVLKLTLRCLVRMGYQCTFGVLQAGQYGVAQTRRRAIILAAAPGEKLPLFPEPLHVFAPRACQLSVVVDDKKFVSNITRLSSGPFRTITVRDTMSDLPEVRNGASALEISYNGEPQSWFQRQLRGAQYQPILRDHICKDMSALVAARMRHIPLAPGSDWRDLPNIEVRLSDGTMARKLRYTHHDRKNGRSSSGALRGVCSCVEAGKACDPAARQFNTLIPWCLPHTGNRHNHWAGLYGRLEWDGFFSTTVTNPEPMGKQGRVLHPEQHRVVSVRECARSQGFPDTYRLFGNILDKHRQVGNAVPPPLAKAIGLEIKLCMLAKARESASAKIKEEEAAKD
Where [3] appears, read: binned activity in either the breaklight or the SPA assay.
Where [4] appears, read: binned activity in either the breaklight or the SPA assay, read-out: DNMT1 BioChemical (pIC50 category) (converted).

For `CCc1c(C#N)c(SC(C(N)=O)c2ccccc2)nc(N(C)CCNCCOC)c1C#N` (centres unmarked) [Example 491, 2-((3,5-dicyano-4-ethyl-6-((2-((2-methoxyethyl)amino)ethyl)(methyl)amino)pyridin-2-yl)thio)-2-phenylacetamide], in assay [1], the EC50 was < 316 nM. In addition, the “DNMT1 BioChemical (pIC50 category)” value in assay [2] (setting [3]) is “D (Category D: ≥6.5)”.

Regarding `CCc1c(C#N)c(SC(C(N)=O)c2ccccc2)nc(N2CCC(NC(=O)CCCN)CC2)c1C#N` (centres unmarked) [Example 629, 4-amino-N-(1-(6-((2-amino-2-oxo-1-phenylethyl)thio)-3,5-dicyano-4-ethylpyridin-2-yl)piperidin-4-yl)butanamide formate], the EC50 in assay [1] is 1000 to 31600 nM. For the same compound, the “DNMT1 BioChemical (pIC50 category)” value in assay [2] (setting [3]) is recorded as “D (Category D: ≥6.5)”.

For `CCc1c(C#N)c(SC(C(N)=O)c2ccccc2)nc(N2CCC(C#N)CC2)c1C#N` (centres unmarked) [Example 319, 2-((3,5-Dicyano-6-(4-cyanopiperidin-1-yl)-4-ethylpyridin-2-yl)thio)-2-phenylacetamide], the EC50 in assay [1] is 316 to 1000 nM. The IC50 in assay [2] (setting [4]) was 1000 to 31600 nM.

On to `CCc1c(C#N)c(SCc2ccc(CNC(=O)[C@@H](C)N)cc2)nc(N2CCCN(C)CC2)c1C#N` [Example 98, (R)-2-Amino-N-(4-(((3,5-dicyano-4-ethyl-6-(4-methyl-1,4-diazepan-1-yl)pyridin-2-yl)thio)methyl)benzyl)propanamide], for which, in assay [1], the EC50 was > 31600 nM. Besides, the “DNMT1 BioChemical (pIC50 category)” value in assay [2] (setting [3]) is “D (Category D: ≥6.5)”.

In the case of `CCc1c(C#N)c(SC(C(N)=O)c2ccccc2)nc(N(C)CC(=O)NC(CO)CO)c1C#N` (centres unmarked) [Example 658, 2-((6-((2-amino-2-oxo-1-phenylethyl)thio)-3,5-dicyano-4-ethylpyridin-2-yl)(methyl)amino)-N-(1,3-dihydroxypropan-2-yl)acetamide], the EC50 in assay [1] is 1000 to 31600 nM. Moreover, the “DNMT1 BioChemical (pIC50 category)” value in assay [2] (setting [3]) is on record as “D (Category D: ≥6.5)”.

With `CCc1c(C#N)c(SC(C(N)=O)c2ccccc2)nc(N2CCN(Cc3cncs3)CC2)c1C#N` (centres unmarked) [Example 195, 2-((3,5-Dicyano-4-ethyl-6-(4-(thiazol-5-ylmethyl)piperazin-1-yl)pyridin-2-yl)thio)-2-phenylacetamide], in assay [1], the EC50 is 316 to 1000 nM. Besides, in assay [2] (setting [4]), the IC50 was 316 to 1000 nM.

As to `CCc1c(C#N)c(SC(C(N)=O)c2ccccc2)nc(N2CCC(N3CCOCC3)CC2)c1C#N` (centres unmarked) [Example 503, 2-((3,5-dicyano-4-ethyl-6-(4-morpholinopiperidin-1-yl)pyridin-2-yl)thio)-2-phenylacetamide], in assay [1], the EC50 is 316 to 1000 nM. Also, the “DNMT1 BioChemical (pIC50 category)” value in assay [2] (setting [3]) was “D (Category D: ≥6.5)”.

Turning to `CCc1c(C#N)c(SC(C(N)=O)c2ccncc2)nc(N2CCN(C)C(=O)C2)c1C#N` (centres unmarked) [Example 10, 2-{[3,5-dicyano-4-ethyl-6-(4-methyl-3-oxopiperazin-1-yl)pyridin-2-yl]sulfanyl}-2-(pyridin-4-yl)acetamide], the EC50 in assay [1] was > 31600 nM. Moreover, the IC50 in assay [2] (setting [4]) is 316 to 1000 nM.

Turning to `CCc1c(C#N)c(SC(C(N)=O)c2ccccc2)nc(N(C)CC(C)(O)C(N)=O)c1C#N` (centres unmarked) [Example 261, 3-((6-((2-Amino-2-oxo-1-phenylethyl)thio)-3,5-dicyano-4-ethylpyridin-2-yl)(methyl)amino)-2-hydroxy-2-methylpropanamide], the EC50 in assay [1] was 1000 to 31600 nM. Further, in assay [2] (setting [4]), the IC50 was 316 to 1000 nM.

`CCc1c(C#N)c(SCc2ccc(CC(=O)NCCO)cc2)nc(N(C)C)c1C#N` [Example 291, 2-(4-(((3,5-Dicyano-6-(dimethylamino)-4-ethylpyridin-2-yl)thio)methyl)phenyl)-N-(2-hydroxyethyl)acetamide]: the EC50 in assay [1] was 1000 to 31600 nM. Moreover, the IC50 in assay [2] (setting [4]) is 316 to 1000 nM.

For `CCc1c(C#N)c(SC(C(N)=O)c2ccccc2)nc(N2CCC(O)(CN)CC2)c1C#N` (centres unmarked) [Example 243, 2-((6-(4-(Aminomethyl)-4-hydroxypiperidin-1-yl)-3,5-dicyano-4-ethylpyridin-2-yl)thio)-2-phenylacetamide, Trifluoroacetic Acid Salt], the EC50 in assay [1] was 316 to 1000 nM. Also, in assay [2] (setting [3]), the “DNMT1 BioChemical (pIC50 category)” value is recorded as “D (Category D: ≥6.5)”.

On to `CCc1c(C#N)c(SCc2ccc(CNC(=O)CO)cc2)nc(N(C)C)c1C#N` [Example 278, N-(4-(((3,5-Dicyano-6-(dimethylamino)-4-ethylpyridin-2-yl)thio)methyl)benzyl)-2-hydroxyacetamide], for which the EC50 in assay [1] was 1000 to 31600 nM. Besides, in assay [2] (setting [3]), the “DNMT1 BioChemical (pIC50 category)” value is on record as “D (Category D: ≥6.5)”.

As to `CCc1c(C#N)c(SC(C(N)=O)c2ccccc2)nc(N2CCC[C@H](NC3COC3)C2)c1C#N` (stereo partly drawn) [Example 640, 2-((3,5-dicyano-4-ethyl-6-((S)-3-(oxetan-3-ylamino)piperidin-1-yl)pyridin-2-yl)thio)-2-phenylacetamide], the EC50 in assay [1] was < 316 nM. Further, in assay [2] (setting [3]), the “DNMT1 BioChemical (pIC50 category)” value is “D (Category D: ≥6.5)”.

For the compound `CCc1c(C#N)c(SCc2ccc(N(C)S(C)(=O)=O)cc2)nc(N2CCOC(CN(C)C)C2)c1C#N` (centres unmarked) [Example 571, N-(4-(((3,5-dicyano-6-(2-((dimethylamino)methyl)morpholino)-4-ethylpyridin-2-yl)thio)methyl)phenyl)-N-methylmethanesulfonamide], the EC50 in assay [1] was < 316 nM. The “DNMT1 BioChemical (pIC50 category)” value in assay [2] (setting [3]) is “D (Category D: ≥6.5)”.

Take `CCc1c(C#N)c(S[C@@H](C(N)=O)c2ccccc2)nc(N2CCO[C@H](CNC(=O)CO)C2)c1C#N` [Example 599, N-(((R)-4-(6-(((R)-2-amino-2-oxo-1-phenylethyl)thio)-3,5-dicyano-4-ethylpyridin-2-yl)morpholin-2-yl)methyl)-2-hydroxyacetamide]: the EC50 in assay [1] is 1000 to 31600 nM. Also, the “DNMT1 BioChemical (pIC50 category)” value in assay [2] (setting [3]) is “D (Category D: ≥6.5)”.

For the compound `CCc1c(C#N)c(SC(C(N)=O)c2ccccc2)nc(N2CCc3ccncc3C2)c1C#N` (centres unmarked) [Example 178, 2-((3,5-Dicyano-6-(3,4-dihydro-2,7-naphthyridin-2 (1H)-yl)-4-ethylpyridin-2-yl)thio)-2-phenylacetamide], the EC50 in assay [1] is 1000 to 31600 nM. The “DNMT1 BioChemical (pIC50 category)” value in assay [2] (setting [3]) was “D (Category D: ≥6.5)”.

As to `CCc1c(C#N)c(SCc2ccc(N(C)S(C)(=O)=O)cc2)nc(N2CCC(NCCO)CC2)c1C#N` [Example 692, N-(4-(((3,5-dicyano-4-ethyl-6-(4-((2-hydroxyethyl)amino)piperidin-1-yl)pyridin-2-yl)thio)methyl)phenyl)-N-methylmethanesulfonamide], the EC50 in assay [1] was < 316 nM. Moreover, the “DNMT1 BioChemical (pIC50 category)” value in assay [2] (setting [3]) was “D (Category D: ≥6.5)”.

Consider `CCc1c(C#N)c(SC(C(N)=O)c2cccc(N3CCCC3)c2)nc(N2CCCN(C)CC2)c1C#N` (centres unmarked) [Example 247, 2-((3,5-Dicyano-4-ethyl-6-(4-methyl-1,4-diazepan-1-yl)pyridin-2-yl)thio)-2-(3-(pyrrolidin-1-yl)phenyl)acetamide], for which the EC50 in assay [1] is 316 to 1000 nM. The IC50 was 1000 to 31600 nM in assay [2] (setting [4]); ≥ 1000 nM and 1580 nM in assay [2] (breaklight assay and/or SPA assay, repeated experimental runs, read-out: average pIC50 against DNMT1 (converted)).

Consider `N#Cc1c(SC(C(N)=O)c2ccccc2)nc(N2CCNC(CO)C2)c(C#N)c1C1CC1` (centres unmarked) [Example 14, 2-({3,5-dicyano-4-cyclopropyl-6-[3-(hydroxymethyl)piperazin-1-yl]pyridin-2-yl}sulfanyl)-2-phenylacetamide], for which, in assay [1], the EC50 is 316 to 1000 nM. Besides, in assay [2] (setting [3]), the “DNMT1 BioChemical (pIC50 category)” value is listed as “D (Category D: ≥6.5)”.

On to `CCc1c(C#N)c(SCCN2CCOCC2)nc(SC(C(N)=O)c2ccccc2)c1C#N` (centres unmarked) [Example 201, 2-((3,5-Dicyano-4-ethyl-6-((2-morpholinoethyl)thio)pyridin-2-yl)thio)-2-phenylacetamide], for which, in assay [1], the EC50 was 316 to 1000 nM. The IC50 in assay [2] (setting [4]) was 316 to 1000 nM.
